# Experimental data from US6894033B2, “Combination therapies using vitamin B12 and therapeutic agents for treatment of viral, proliferative and inflammatory diseases” (Transition Therapeutics Inc., priority 2001, dated 2005).
# Read-outs that look alike come from different tables or passages of the source.
# B1: Mouse Interferon-beta: mouse interferon-beta used on mouse astrocytoma cells (protein, UniProt P01575 22-182, looked up)
# Interferon beta: INYKQLQLQERTNIRKCQELLEQLNGKINLTYRADFKIPMEMTEKMQKSYTAFAIQEMLQNVFLVFRNNFSSTGWNETIVVRLLDELHQQTVFLKTVLEEKQEERLTWEMSSTALHLKSYYWRVQRYLKLMKYNSYAWMVVRAEIFRNFLIIRRLTRNFQN
# Key:
# [1] = rabbits; doses up to 100 mg/kg body weight; cited from earlier work
# [2] = test system: Human Hepatitis B Virus (HBV); test: HBV DNA copies in HepG2.2.15 culture medium by Lightcycler real-time PCR; assay type: cell-based; conditions: for Antiviral effect on HBV (HBV DNA copies): HepG2.2.15, 9 days
# Description: HepG2.2.15 cells, a cell line that was stably transfected with HBV genome, were cultured in RPMI-1640 with fetal bovine serum at either 2 or 4% final concentration and with no antibiotics. The cells were seeded in a 96-well plate at a density of 2×10^4 cells/well and grown overnight. […] Triplicate samples were measured for each concentration. The cells were incubated at 37° C. for 9 days. Drug/medium was changed daily. On day 9, the culture media containing released HBV virions were harvested and used to extract HBV DNA.
# HBV DNA from drug-treated HepG2.2.15 cell culture media was extracted using QIAmp DNA mini kit—blood and body fluid spin column according to manufacturer's instructions. Briefly, 10 μl of QIAGEN proteinase K was added to 1.5 ml Eppendorf tube. 50 μl cell supernatant and 50 μl AL buffer were added to the tube. The samples were incubated at 56° C. water bath for 3 h. At the end of incubation, 50 μl ethanol was added to the sample. The mixture was transferred to a QIAamp spin column and centrifuged at 14000 rpm for 1 min. The filtrate was discarded. 50 μl Buffer AW1 was then added to the column and centrifuged at 14000 rpm for 1 min. Following washing and recentrifugation, DNA was eluted in 50 μl dH2O.
# HBV DNA was detected by real-time PCR using Lightcycler assay. The reaction was performed in 20 μl, comprising the following: 6.4/4.8 μl dH2O, 2 μl 25 mM MgCl2, 1 μl 10 μM sense primer, 1 μl 10 μM antisense primer, 8/1.6 μl LightCycler Probe (fluorescein-labeled, 5 μM), 0.8/1.6 μl LightCycler Probe 2 (LC Red 640-labeled, 10 μM), 2 μl LC FastStart DNA Master Hyb Probes, 1 μl uracil DNA glycosylase.
# PCR mix was aliquoted into glass capillaries and 5 μl DNA template was then added to the PCR mix. A range of HBV plasmid DNA (1×10^8, 1×10^7, 1×10^6, . . . , 1×10^2, 25 copies) was used as standards for quantitative analysis.
# The antiviral effects of the test compounds were calculated using DNA copy numbers as an endpoint. Specifically, the antiviral activities were calculated based on the following formula: Antiviral effect=(Ccontrol−Ctest)/Ccontrol whereby the Ccontrol is the HBV DNA copies in the control wells (without drug); the Ctest is the HBV DNA copies in the test wells with a given concentration of a test compound.
# The enhancing or antagonistic effect was analyzed mathematically using the median effect equation (Chou and Talalay, 1984) by computer software CalcuSyn (Biosoft, St. Louis).
# [3] = mice; doses up to 1 g/kg body weight; cited from earlier work
# [4] = test system: Herpes Simplex Virus Type 2 (HSV-2); test: CPE inhibition assay in MRC-5 cells, HSV-2; assay type: cell-based
# [5] = test system: Vesticular Stomatitis Virus (VSV); assay type: cell-based; conditions: MRC-5; for Anti-viral activity (protection of CPE) / viral activity, VSV: vitamin B12 = hydroxocobalamin (HC)
# ND4 mouse model = test: Clinical signs in the ND4 demyelinating transgenic mouse model; assay type: in vivo; conditions: ND4 mice; for mean clinical scores / clinical signs (FIG. 5): intraperitoneal, paclitaxel alone 20 mg/kg once a week, vitamin B12 10 mg/kg once a week, combination with paclitaxel 5 mg/kg three times per week
# Source text: (§1) In this model, the severity of the clinical signs increased until a maximum around 6 months with animals dying around 8 to 9 months of age. Clinical signs assessed included general shaking, seizures, head jerk, hind limb and tail shiver, wobbly gait and limp tail. The scale of zero (absence) to four (constant and uncontrollable movements) was used for each of the clinical signs.
# All treatments began when the mice reached 3 months of age at which time signs of demyelinating disease were evident. Treatment was stopped at time of sacrifice.
# Treatment was started when the animals were 3 months of age and continued for 11 weeks. The animals were evaluated twice a week for clinical signs and the scores were averaged on a weekly basis. Refer to example 1 for more experimental details.
# as §1, with “The” for “In this model, the”, “increase” for “increased”, “include” for “included”
# Mice (4 animals per group) were treated with vitamin B12 (cyanocobalamin) alone at a dose of 15 mg/kg, weekly and in combination with P-16. P-16 was administered alone and in combination with vitamin B12 at a dose of 1 mg/kg, tri-weekly. All treatments began when the mice reached 3 months of age at which time signs of demyelinating disease were evident. Treatment was stopped at time of sacrifice.
# The ND4 transgenic mice received one of the following treatments through intraperitoneal injections: 1) paclitaxel (TAXOL®) at a dose of 20 mg/kg once a week; 2) vitamin B12 at a dose of 10 mg/kg once a week and paclitaxel (TAXOL®) at a dose of 5 mg/kg three times per week; and 3) vitamin B12 at a dose of 10 mg/kg once a week. All treatments started when the mice reached 3 months of age, at which time signs of demyelinating disease were evident.
# [6] = test system: Mouse ascite astrocytoma cells; conditions: overnight, no treatment 0.8955
# Description: Mouse ascite astrocytoma cells were seeded in a 96-well plate and grown to 60% confluence in standard growth conditions.
# 96® AQueous One Solution Cell Proliferation Assay was used as a colorimetric method for determining the number of viable cells in proliferations. […] 96® AQueous One Solution Reagent directly to culture wells, incubating for 1-4 hours and then recording absorbance at 490 nm with a 96 well plate reader. The quantity of formazan product as measured by the amount of 490 nm absorbance is known in the art to be directly proportional to the number of living cells in the culture.
# GFAP [7] = test: GFAP in brain of EAE mice (immunohistochemistry, slot blot of homogenates); assay type: in vivo, mouse
# Description: EAE mice were treated as described previously in Example 2. After the various treatments, the mice were sacrificed and brain sections removed for GFAP staining and quantitation. The brain region of hippocampus, adjacent to the dentate gyrus was fixed in formalin, paraffin-embedded and sectioned at 5 μm. Immunohistochemistry with anti-GFAP antibody was used to stain for GFAP.
# In addition, quantification of GFAP within the brains of normal, EAE untreated and EAE treated mice was carried out to provide a more precise level of protein expression. Whole brain homogenates were assayed for GFAP by slot blot. Brains were homogenized in a buffer containing 50 mM Tris-HCl pH 7.6, 0.5 mM DTT, 1 mM EDTA, and 0.43 mM PMSF. The homogenate was centrifuged at 11000 rpm for 30 min at 4° C. The pellet was isolated and resuspended in a buffer containing 10 mM sodium phosphate pH 7.5, 2 mM DTT, 6 mM urea and 1 mM EDTA. Samples were loaded onto the slot blot apparatus (BioDot, Biorad) under vacuum. The blots were reacted with anti-GFAP antibodies and then a secondary antibody. The blots were developed and the relative amounts of each band quantified.
# [8] = Toxicity in the applicant's animal studies; assay type: in vivo; conditions: concentrations of 15 mg/kg of vitamin B12 in mice
# GFAP [9] = test: GFAP in brain of ND4 mice (immunohistochemistry, slot blot of homogenates); assay type: in vivo, mouse; conditions: Vitamin B12 15 mg/kg, Normal 1.0, untreated ND4 4.4
# Source text: After the various treatments, the mice were sacrificed and brain sections removed for GFAP staining and quantitation. The brain region of hippocampus, adjacent to the dentate gyrus was fixed in formalin, paraffin-embedded and sectioned at 5 μm. Immunohistochemistry with anti-GFAP antibody was used to stain for GFAP. Glial fibrillary acidic protein was a protein expressed by astrocytes (particularly reactive astrocytes) and was used as a marker for these cells.
# In addition, quantification of GFAP within the brains of normal, ND4 untreated and ND4 treated mice was carried out to provide a more precise level of protein expression. Whole brain homogenates were assayed for GFAP by slot blot. Brains were homogenized in a buffer containing 50 mM Tris-HCl pH 7.6, 0.5 mM DTT, 1 mM EDTA, and 0.43 mM PMSF. The homogenate was centrifuged at 11000 rpm for 30 min at 4° C. The pellet was isolated and resuspended in a buffer containing 10 mM sodium phosphate pH 7.5, 2 mM DTT, 6 mM urea and 1 mM EDTA. Samples were loaded onto the slot blot apparatus (BioDot, Biorad) under vacuum. The blots were reacted with anti-GFAP antibodies and then a secondary antibody. The blots were developed and the relative amounts of each band quantified.
# [10] = HC 1 μg/ml, fraction (ODTest−OD0)/(ODControl−OD0)
# [11] = Vitamin B12 (methylcobalamin) 25 μg/ml
molecule,measurement,setting,value
"C/C1=C2/[N-][C@H]([C@H](CC(N)=O)[C@@]2(C)CCC(=O)NC[C@@H](C)OP(=O)([O-])O[C@H]2[C@@H](O)[C@@H](n3cnc4cc(C)c(C)cc43)O[C@@H]2CO)[C@]2(C)N=C(/C(C)=C3N=C(/C=C4N=C1[C@@H](CCC(N)=O)C\4(C)C)[C@@H](CCC(N)=O)[C@]\3(C)CC(N)=O)[C@@H](CCC(N)=O)[C@]2(C)CC(N)=O.[Co+3].[OH-] [HC, hydroxocobalamin]",acute toxicity,[1],no toxicities were observed
same,Antiviral effect on HBV (HBV DNA copies),"[2]; HC 1 μg/ml, fraction (Ccontrol−Ctest)/Ccontrol",0.001
same,Antiviral effect on HBV (HBV DNA copies),"[2]; HC 10 μg/ml, fraction",0.001
same,Antiviral effect on HBV (HBV DNA copies),"[2]; HC 100 μg/ml, fraction",0.001
same,Antiviral effect on HBV (HBV DNA copies),"[2]; HC 500 μg/ml, fraction",0.112
same,acute toxicity,[3],no toxicities were observed
same,Antiviral effect on HSV-2 (CPE inhibition),[4]; [10],0.014
same,Antiviral effect on HSV-2 (CPE inhibition),"[4]; HC 10 μg/ml, fraction",0.032
same,Antiviral effect on HSV-2 (CPE inhibition),"[4]; HC 100 μg/ml, fraction",0.056
same,Antiviral effect on HSV-2 (CPE inhibition),"[4]; HC 500 μg/ml, fraction",0.166
same,Antiviral effect on HSV-2 (CPE inhibition),"[4]; HC 1000 μg/ml, fraction",0.210
same,Antiviral effect on VSV (CPE inhibition),[5]; [10],≤ 0.001
same,Antiviral effect on VSV (CPE inhibition),"[5]; HC 10 μg/ml, fraction",≤ 0.001
same,Antiviral effect on VSV (CPE inhibition),"[5]; HC 100 μg/ml, fraction",0.039
same,Antiviral effect on VSV (CPE inhibition),"[5]; HC 500 μg/ml, fraction",≤ 0.001
same,Antiviral effect on VSV (CPE inhibition),"[5]; HC 1000 μg/ml, fraction",0.002
CC(=O)O[C@H]1C(=O)[C@@]2(C)[C@H]([C@H](OC(=O)c3ccccc3)[C@]3(O)C[C@H](OC(=O)[C@H](O)[C@@H](NC(=O)c4ccccc4)c4ccccc4)C(C)=C1C3(C)C)[C@]1(OC(C)=O)CO[C@@H]1C[C@@H]2O [paclitaxel],mean clinical scores / clinical signs (FIG. 5),ND4 mouse model,significant attenuation of mean clinical scores
"C/C1=C2/[N-][C@H]([C@H](CC(N)=O)[C@@]2(C)CCC(=O)NC[C@H](C)OP(=O)([O-])O[C@H]2[C@@H](O)[C@@H](n3cnc4cc(C)c(C)cc43)O[C@@H]2CO)[C@]2(C)N=C(/C(C)=C3N=C(/C=C4N=C1[C@@H](CCC(N)=O)C\4(C)C)[C@@H](CCC(N)=O)[C@]\3(C)CC(N)=O)[C@@H](CCC(N)=O)[C@]2(C)CC(N)=O.[CH3-].[Co+3] [vitamin B12 (methylcobalamin), methylcobalamin]",Measure of Proliferative Activity (Absorbance at 490 nm),[6]; [11],decrease in proliferative activity
CSTMMSRSHKTRSHHV (Synthetically generated peptide) [P-16],clinical signs of MS (FIG. 3),"ND4 mouse model; P-16 1 mg/kg tri-weekly, vitamin B12 (cyanocobalamin) 15 mg/kg weekly",attenuation of clinical signs
cyanocobalamin [Vitamin B12],Relative Amount of GFAP (+/−SD),"GFAP [7]; EAE brain homogenates, Vitamin B12 15 mg/kg, Normal 1.0, untreated EAE 4.2",4.2 +/− 0.2
same,levels of activated astrocytes and levels of GFAP,GFAP [7]; EAE mice treated as in Example 2,not effective in decreasing the levels of GFAP
same,toxicity in animals,[8],no toxicity has been found
same,Measure of Proliferative Activity (Absorbance at 490 nm),[6]; [11],0.2985
same,viral activity (HBV),"[2]; HepG2.2.15, vitamin B12 = hydroxocobalamin (HC)",not
same,mean clinical scores / clinical signs (FIG. 5),ND4 mouse model,significant attenuation of mean clinical scores
same,clinical signs of MS (FIG. 1),"ND4 mouse model; vitamin B12 (cyanocobalamin) 15 mg/kg weekly, interferon-beta 1a 5000 IU tri-weekly, from 3 months of age",attenuation of clinical signs
same,"Anti-viral activity (protection of CPE) / viral activity, VSV",[5],significantly increased
same,Relative Amount of GFAP (+/−SD),GFAP [9],2.8 +/− 0.1
interferon-alpha,Antiviral effect on HSV-2 (CPE inhibition),"[4]; interferon 5 IU/ml, fraction",0.093
same,Antiviral effect on HSV-2 (CPE inhibition),"[4]; interferon 10 IU/ml, fraction",0.139
same,Antiviral effect on HSV-2 (CPE inhibition),"[4]; interferon 50 IU/ml, fraction",0.218
same,Antiviral effect on HSV-2 (CPE inhibition),"[4]; interferon 100 IU/ml, fraction",0.282
same,Antiviral effect on HSV-2 (CPE inhibition),"[4]; interferon 500 IU/ml, fraction",0.271
same,"Anti-viral activity (protection of CPE) / viral activity, VSV",[5],significantly increased
same,Antiviral effect on VSV (CPE inhibition),"[5]; interferon 5 IU/ml, fraction",0.296
same,Antiviral effect on VSV (CPE inhibition),"[5]; interferon 10 IU/ml, fraction",0.387
same,Antiviral effect on VSV (CPE inhibition),"[5]; interferon 50 IU/ml, fraction",0.950
same,Antiviral effect on VSV (CPE inhibition),"[5]; interferon 100 IU/ml, fraction",0.996
same,Antiviral effect on VSV (CPE inhibition),"[5]; interferon 500 IU/ml, fraction",0.942
B1,Measure of Proliferative Activity (Absorbance at 490 nm),[6]; Mouse Interferon-beta 500 IU/ml,0.3855
same,Measure of Proliferative Activity (Absorbance at 490 nm),"[6]; Mouse Interferon-beta 500 IU/ml, listed as mice interferon-beta",decrease in proliferative activity
